Among the data in PubChem BioAssay AID1963837 (Molecular Pharmacology Branch, DTP, NCI, 2024) are viability, T/C values, retold here.
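Also: spheroids exposed to drugs for seven days before readout.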

One test relates to 843126-344-R-J1-PDC complex spheroid viability. Kind of test: Anticancer human tumor 843126-344-R-J1-PDC patient-derived melanoma cell line growth inhibition [POLQ]. Conditions: second compound 0.316 µM; first compound 1 µM; stronger effect = lower value. The essentials:
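Patient-derived tumour cells were co-cultured with HUVEC and mesenchymal stem cells as multicellular spheroids at 37 °C. They were treated with POLQ inhibitors (novobiocin, ART-558, RP6685) alone or combined with other agents. Top concentrations were at or near clinical Cmax (otherwise 10 microM; SN-38 at 1 microM), decreasing in half-log steps.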
With `CC1COCCN1c1cc(C2(O)CC3CCC(C2)O3)c2cnn(-c3ccn[nH]3)c2n1` (configuration not stated) + COC1C(OC(N)=O)C(O)C(Oc2ccc3c(O)c(NC(=O)c4ccc(O)c(CC=C(C)C)c4)c(=O)oc3c2C)OC1(C)C, the viability, T/C was 44.5%.

As to `O=C(Nc1ccc(O)c(NS(=O)(=O)c2ccc(F)cc2)c1)c1ccc(-c2ccccc2)cc1` + COC1C(OC(N)=O)C(O)C(Oc2ccc3c(O)c(NC(=O)c4ccc(O)c(CC=C(C)C)c4)c(=O)oc3c2C)OC1(C)C, the viability, T/C is 95.5%.

With `COc1cc(C2c3cc4c(cc3C(OC3OC5COC(C)OC5C(O)C3O)C3COC(=O)C23)OCO4)cc(OC)c1O` (configuration not stated) + Cc1cccc(N(C)C(=O)C2C(O)CCN2c2nc(C)cc(C(F)(F)F)c2C#N)c1, the viability, T/C is 71.8%.

On to `COc1cccc2c1C(=O)c1c(O)c3c(c(O)c1C2=O)CC(O)(C(=O)CO)CC3OC1CC(N)C(O)C(C)O1` (configuration not stated) + Cc1cccc(N(C)C(=O)C2C(O)CCN2c2nc(C)cc(C(F)(F)F)c2C#N)c1, for which the viability, T/C was 10.6%.

Staying with this test, now noted: second compound 0.316 µM; first compound 3.16 µM; stronger effect = lower value.
Take `CC1COCCN1c1cc(C2(O)CC3CCC(C2)O3)c2cnn(-c3ccn[nH]3)c2n1` (configuration not stated) + COC1C(OC(N)=O)C(O)C(Oc2ccc3c(O)c(NC(=O)c4ccc(O)c(CC=C(C)C)c4)c(=O)oc3c2C)OC1(C)C: the viability, T/C is 22.5%.

As for `O=C(Nc1ccc(O)c(NS(=O)(=O)c2ccc(F)cc2)c1)c1ccc(-c2ccccc2)cc1` + COC1C(OC(N)=O)C(O)C(Oc2ccc3c(O)c(NC(=O)c4ccc(O)c(CC=C(C)C)c4)c(=O)oc3c2C)OC1(C)C, the viability, T/C is 91.8%.

Regarding `COc1cc(C2c3cc4c(cc3C(OC3OC5COC(C)OC5C(O)C3O)C3COC(=O)C23)OCO4)cc(OC)c1O` (configuration not stated) + Cc1cccc(N(C)C(=O)C2C(O)CCN2c2nc(C)cc(C(F)(F)F)c2C#N)c1, the viability, T/C was 61.2%.

With `COc1cccc2c1C(=O)c1c(O)c3c(c(O)c1C2=O)CC(O)(C(=O)CO)CC3OC1CC(N)C(O)C(C)O1` (configuration not stated) + Cc1cccc(N(C)C(=O)C2C(O)CCN2c2nc(C)cc(C(F)(F)F)c2C#N)c1, the viability, T/C is 3.96%.

Still in this test, the particulars now being: second compound 0.316 µM; first compound 10 µM; stronger effect = lower value.
Regarding `CC1COCCN1c1cc(C2(O)CC3CCC(C2)O3)c2cnn(-c3ccn[nH]3)c2n1` (configuration not stated) + COC1C(OC(N)=O)C(O)C(Oc2ccc3c(O)c(NC(=O)c4ccc(O)c(CC=C(C)C)c4)c(=O)oc3c2C)OC1(C)C, the viability, T/C was 15.1%.

`O=C(Nc1ccc(O)c(NS(=O)(=O)c2ccc(F)cc2)c1)c1ccc(-c2ccccc2)cc1` + COC1C(OC(N)=O)C(O)C(Oc2ccc3c(O)c(NC(=O)c4ccc(O)c(CC=C(C)C)c4)c(=O)oc3c2C)OC1(C)C: the viability, T/C is 73.1%.

`COc1cc(C2c3cc4c(cc3C(OC3OC5COC(C)OC5C(O)C3O)C3COC(=O)C23)OCO4)cc(OC)c1O` (configuration not stated) + Cc1cccc(N(C)C(=O)C2C(O)CCN2c2nc(C)cc(C(F)(F)F)c2C#N)c1: the viability, T/C is 42.1%.

For the compound `COc1cccc2c1C(=O)c1c(O)c3c(c(O)c1C2=O)CC(O)(C(=O)CO)CC3OC1CC(N)C(O)C(C)O1` (configuration not stated) + Cc1cccc(N(C)C(=O)C2C(O)CCN2c2nc(C)cc(C(F)(F)F)c2C#N)c1, the viability, T/C was 3.01%.

The same test, now with this note: second compound 1 µM; first compound 0.0316 µM; stronger effect = lower value.
As for `CC1COCCN1c1cc(C2(O)CC3CCC(C2)O3)c2cnn(-c3ccn[nH]3)c2n1` (configuration not stated) + COC1C(OC(N)=O)C(O)C(Oc2ccc3c(O)c(NC(=O)c4ccc(O)c(CC=C(C)C)c4)c(=O)oc3c2C)OC1(C)C, the viability, T/C is 73.2%.

In the case of `O=C(Nc1ccc(O)c(NS(=O)(=O)c2ccc(F)cc2)c1)c1ccc(-c2ccccc2)cc1` + COC1C(OC(N)=O)C(O)C(Oc2ccc3c(O)c(NC(=O)c4ccc(O)c(CC=C(C)C)c4)c(=O)oc3c2C)OC1(C)C, the viability, T/C is 90.9%.

In the case of `COc1cc(C2c3cc4c(cc3C(OC3OC5COC(C)OC5C(O)C3O)C3COC(=O)C23)OCO4)cc(OC)c1O` (configuration not stated) + Cc1cccc(N(C)C(=O)C2C(O)CCN2c2nc(C)cc(C(F)(F)F)c2C#N)c1, the viability, T/C was 86.1%.

Turning to `COc1cccc2c1C(=O)c1c(O)c3c(c(O)c1C2=O)CC(O)(C(=O)CO)CC3OC1CC(N)C(O)C(C)O1` (configuration not stated) + Cc1cccc(N(C)C(=O)C2C(O)CCN2c2nc(C)cc(C(F)(F)F)c2C#N)c1, the viability, T/C is 90.8%.

The test is the same for the next values; noted with them: second compound 1 µM; first compound 0.1 µM; stronger effect = lower value.
As for `CC1COCCN1c1cc(C2(O)CC3CCC(C2)O3)c2cnn(-c3ccn[nH]3)c2n1` (configuration not stated) + COC1C(OC(N)=O)C(O)C(Oc2ccc3c(O)c(NC(=O)c4ccc(O)c(CC=C(C)C)c4)c(=O)oc3c2C)OC1(C)C, the viability, T/C is 68.3%.

On to `O=C(Nc1ccc(O)c(NS(=O)(=O)c2ccc(F)cc2)c1)c1ccc(-c2ccccc2)cc1` + COC1C(OC(N)=O)C(O)C(Oc2ccc3c(O)c(NC(=O)c4ccc(O)c(CC=C(C)C)c4)c(=O)oc3c2C)OC1(C)C, for which the viability, T/C is 85.3%.

Consider `COc1cc(C2c3cc4c(cc3C(OC3OC5COC(C)OC5C(O)C3O)C3COC(=O)C23)OCO4)cc(OC)c1O` (configuration not stated) + Cc1cccc(N(C)C(=O)C2C(O)CCN2c2nc(C)cc(C(F)(F)F)c2C#N)c1, for which the viability, T/C is 90.3%.

`COc1cccc2c1C(=O)c1c(O)c3c(c(O)c1C2=O)CC(O)(C(=O)CO)CC3OC1CC(N)C(O)C(C)O1` (configuration not stated) + Cc1cccc(N(C)C(=O)C2C(O)CCN2c2nc(C)cc(C(F)(F)F)c2C#N)c1: the viability, T/C was 69.5%.

The same test, now with this note: second compound 1 µM; first compound 0.316 µM; stronger effect = lower value.
With `CC1COCCN1c1cc(C2(O)CC3CCC(C2)O3)c2cnn(-c3ccn[nH]3)c2n1` (configuration not stated) + COC1C(OC(N)=O)C(O)C(Oc2ccc3c(O)c(NC(=O)c4ccc(O)c(CC=C(C)C)c4)c(=O)oc3c2C)OC1(C)C, the viability, T/C was 51.4%.

On to `O=C(Nc1ccc(O)c(NS(=O)(=O)c2ccc(F)cc2)c1)c1ccc(-c2ccccc2)cc1` + COC1C(OC(N)=O)C(O)C(Oc2ccc3c(O)c(NC(=O)c4ccc(O)c(CC=C(C)C)c4)c(=O)oc3c2C)OC1(C)C, for which the viability, T/C was 91.9%.

For the compound `COc1cc(C2c3cc4c(cc3C(OC3OC5COC(C)OC5C(O)C3O)C3COC(=O)C23)OCO4)cc(OC)c1O` (configuration not stated) + Cc1cccc(N(C)C(=O)C2C(O)CCN2c2nc(C)cc(C(F)(F)F)c2C#N)c1, the viability, T/C was 86.6%.

For `COc1cccc2c1C(=O)c1c(O)c3c(c(O)c1C2=O)CC(O)(C(=O)CO)CC3OC1CC(N)C(O)C(C)O1` (configuration not stated) + Cc1cccc(N(C)C(=O)C2C(O)CCN2c2nc(C)cc(C(F)(F)F)c2C#N)c1, the viability, T/C is 39.7%.

Staying with this test, now noted: second compound 1 µM; first compound 1 µM; stronger effect = lower value.
Regarding `CC1COCCN1c1cc(C2(O)CC3CCC(C2)O3)c2cnn(-c3ccn[nH]3)c2n1` (configuration not stated) + COC1C(OC(N)=O)C(O)C(Oc2ccc3c(O)c(NC(=O)c4ccc(O)c(CC=C(C)C)c4)c(=O)oc3c2C)OC1(C)C, the viability, T/C was 36.3%.

As to `O=C(Nc1ccc(O)c(NS(=O)(=O)c2ccc(F)cc2)c1)c1ccc(-c2ccccc2)cc1` + COC1C(OC(N)=O)C(O)C(Oc2ccc3c(O)c(NC(=O)c4ccc(O)c(CC=C(C)C)c4)c(=O)oc3c2C)OC1(C)C, the viability, T/C is 98.9%.

As for `COc1cc(C2c3cc4c(cc3C(OC3OC5COC(C)OC5C(O)C3O)C3COC(=O)C23)OCO4)cc(OC)c1O` (configuration not stated) + Cc1cccc(N(C)C(=O)C2C(O)CCN2c2nc(C)cc(C(F)(F)F)c2C#N)c1, the viability, T/C is 82.3%.

As for `COc1cccc2c1C(=O)c1c(O)c3c(c(O)c1C2=O)CC(O)(C(=O)CO)CC3OC1CC(N)C(O)C(C)O1` (configuration not stated) + Cc1cccc(N(C)C(=O)C2C(O)CCN2c2nc(C)cc(C(F)(F)F)c2C#N)c1, the viability, T/C was 7.4%.

Still in this test, the particulars now being: second compound 1 µM; first compound 3.16 µM; stronger effect = lower value.
Take `CC1COCCN1c1cc(C2(O)CC3CCC(C2)O3)c2cnn(-c3ccn[nH]3)c2n1` (configuration not stated) + COC1C(OC(N)=O)C(O)C(Oc2ccc3c(O)c(NC(=O)c4ccc(O)c(CC=C(C)C)c4)c(=O)oc3c2C)OC1(C)C: the viability, T/C is 27.4%.

In the case of `O=C(Nc1ccc(O)c(NS(=O)(=O)c2ccc(F)cc2)c1)c1ccc(-c2ccccc2)cc1` + COC1C(OC(N)=O)C(O)C(Oc2ccc3c(O)c(NC(=O)c4ccc(O)c(CC=C(C)C)c4)c(=O)oc3c2C)OC1(C)C, the viability, T/C was 112%.

`COc1cc(C2c3cc4c(cc3C(OC3OC5COC(C)OC5C(O)C3O)C3COC(=O)C23)OCO4)cc(OC)c1O` (configuration not stated) + Cc1cccc(N(C)C(=O)C2C(O)CCN2c2nc(C)cc(C(F)(F)F)c2C#N)c1: the viability, T/C is 56.9%.

As to `COc1cccc2c1C(=O)c1c(O)c3c(c(O)c1C2=O)CC(O)(C(=O)CO)CC3OC1CC(N)C(O)C(C)O1` (configuration not stated) + Cc1cccc(N(C)C(=O)C2C(O)CCN2c2nc(C)cc(C(F)(F)F)c2C#N)c1, the viability, T/C was 3.66%.

The test is the same for the next values; noted with them: second compound 1 µM; first compound 10 µM; stronger effect = lower value.
Turning to `CC1COCCN1c1cc(C2(O)CC3CCC(C2)O3)c2cnn(-c3ccn[nH]3)c2n1` (configuration not stated) + COC1C(OC(N)=O)C(O)C(Oc2ccc3c(O)c(NC(=O)c4ccc(O)c(CC=C(C)C)c4)c(=O)oc3c2C)OC1(C)C, the viability, T/C is 14.7%.

As to `O=C(Nc1ccc(O)c(NS(=O)(=O)c2ccc(F)cc2)c1)c1ccc(-c2ccccc2)cc1` + COC1C(OC(N)=O)C(O)C(Oc2ccc3c(O)c(NC(=O)c4ccc(O)c(CC=C(C)C)c4)c(=O)oc3c2C)OC1(C)C, the viability, T/C is 89.3%.

As to `COc1cc(C2c3cc4c(cc3C(OC3OC5COC(C)OC5C(O)C3O)C3COC(=O)C23)OCO4)cc(OC)c1O` (configuration not stated) + Cc1cccc(N(C)C(=O)C2C(O)CCN2c2nc(C)cc(C(F)(F)F)c2C#N)c1, the viability, T/C is 50.2%.

`COc1cccc2c1C(=O)c1c(O)c3c(c(O)c1C2=O)CC(O)(C(=O)CO)CC3OC1CC(N)C(O)C(C)O1` (configuration not stated) + Cc1cccc(N(C)C(=O)C2C(O)CCN2c2nc(C)cc(C(F)(F)F)c2C#N)c1: the viability, T/C was 3.67%.

The same test, now with this note: second compound 3.16 µM; first compound 0.0316 µM; stronger effect = lower value.
Turning to `CC1COCCN1c1cc(C2(O)CC3CCC(C2)O3)c2cnn(-c3ccn[nH]3)c2n1` (configuration not stated) + COC1C(OC(N)=O)C(O)C(Oc2ccc3c(O)c(NC(=O)c4ccc(O)c(CC=C(C)C)c4)c(=O)oc3c2C)OC1(C)C, the viability, T/C was 88.7%.

For `O=C(Nc1ccc(O)c(NS(=O)(=O)c2ccc(F)cc2)c1)c1ccc(-c2ccccc2)cc1` + COC1C(OC(N)=O)C(O)C(Oc2ccc3c(O)c(NC(=O)c4ccc(O)c(CC=C(C)C)c4)c(=O)oc3c2C)OC1(C)C, the viability, T/C is 95.5%.

Regarding `COc1cc(C2c3cc4c(cc3C(OC3OC5COC(C)OC5C(O)C3O)C3COC(=O)C23)OCO4)cc(OC)c1O` (configuration not stated) + Cc1cccc(N(C)C(=O)C2C(O)CCN2c2nc(C)cc(C(F)(F)F)c2C#N)c1, the viability, T/C was 77.9%.

Turning to `COc1cccc2c1C(=O)c1c(O)c3c(c(O)c1C2=O)CC(O)(C(=O)CO)CC3OC1CC(N)C(O)C(C)O1` (configuration not stated) + Cc1cccc(N(C)C(=O)C2C(O)CCN2c2nc(C)cc(C(F)(F)F)c2C#N)c1, the viability, T/C was 74.3%.

The same test, now with this note: second compound 3.16 µM; first compound 0.1 µM; stronger effect = lower value.
As for `CC1COCCN1c1cc(C2(O)CC3CCC(C2)O3)c2cnn(-c3ccn[nH]3)c2n1` (configuration not stated) + COC1C(OC(N)=O)C(O)C(Oc2ccc3c(O)c(NC(=O)c4ccc(O)c(CC=C(C)C)c4)c(=O)oc3c2C)OC1(C)C, the viability, T/C is 55.5%.

`O=C(Nc1ccc(O)c(NS(=O)(=O)c2ccc(F)cc2)c1)c1ccc(-c2ccccc2)cc1` + COC1C(OC(N)=O)C(O)C(Oc2ccc3c(O)c(NC(=O)c4ccc(O)c(CC=C(C)C)c4)c(=O)oc3c2C)OC1(C)C: the viability, T/C was 93.9%.

By viability, T/C is commonly meant the ratio of treated to control.
